Data as given in patent publication US9340555B2, “Compounds as tyrosine kinase modulators” (Allergan, Inc., priority 2009, dated 2016).

Key:
[1] = target: PDGFRβ (Homo sapiens (Human), UniProt P09619); experiment: Enzymic PDGFRβ; assay type: biochemical
[2] = target: human VEGF receptor (VEGFR-2) (Homo sapiens (Human), UniProt P35968); experiment: VEGFR2 Kinase Assay (Enzymic VEGFR2); assay type: biochemical; settings: His-VEGFR-2 cytoplasmic domain, 3.6 µM ATP
Description: VEGFR2 Kinase Assay The cytoplasmic domain of the human VEGF receptor (VEGFR-2) was expressed as a Histidine-tagged fusion protein following infection of insect cells using an His engineered baculovirus. […] Kinase assays were performed in 96 well microtiter plates that were coated overnight with 30 µg of poly-Glu-[…]:1) in 10 mM Phosphate Buffered Saline (PBS), pH 7.2-7.4. The plates were incubated with 1% BSA and then washed four times with PBS prior to starting the reaction. […] Reactions were initiated by the addition 0.5 ng of purified protein. Following a ten minute incubation at 25° C., the reactions were washed four times with PBS containing 0.05% Tween-20. 100 µl of a monoclonal anti-phosphotyrosine antibody-peroxidase conjugate was diluted 1:10000 in PBS-Tween-20 and added to the wells for 30 minutes. Following four washes with PBS-Tween-20, 100 µl of 0-phenylenediamine Dihydrochloride in Phosphate-citrate buffer, containing urea hydrogen peroxide, was added to the wells for 7 minutes as a colorimetric substrate for the peroxidase. […] IC50 values for compound inhibition were calculated directly from graphs of optical density (arbitrary units) versus compound concentration following subtraction of blank values.

[3] = target: VEGFR2 (Homo sapiens (Human), UniProt P35968); experiment: VEGF Stimulated Ca++ Signal In Vitro (Cellular VEGFR2, FLIPR); assay type: cell-based; settings: HUVEC, VEGF stimulation (5 ng/mL), intracellular calcium
Chain of VEGFR2 (P35968 20-1356): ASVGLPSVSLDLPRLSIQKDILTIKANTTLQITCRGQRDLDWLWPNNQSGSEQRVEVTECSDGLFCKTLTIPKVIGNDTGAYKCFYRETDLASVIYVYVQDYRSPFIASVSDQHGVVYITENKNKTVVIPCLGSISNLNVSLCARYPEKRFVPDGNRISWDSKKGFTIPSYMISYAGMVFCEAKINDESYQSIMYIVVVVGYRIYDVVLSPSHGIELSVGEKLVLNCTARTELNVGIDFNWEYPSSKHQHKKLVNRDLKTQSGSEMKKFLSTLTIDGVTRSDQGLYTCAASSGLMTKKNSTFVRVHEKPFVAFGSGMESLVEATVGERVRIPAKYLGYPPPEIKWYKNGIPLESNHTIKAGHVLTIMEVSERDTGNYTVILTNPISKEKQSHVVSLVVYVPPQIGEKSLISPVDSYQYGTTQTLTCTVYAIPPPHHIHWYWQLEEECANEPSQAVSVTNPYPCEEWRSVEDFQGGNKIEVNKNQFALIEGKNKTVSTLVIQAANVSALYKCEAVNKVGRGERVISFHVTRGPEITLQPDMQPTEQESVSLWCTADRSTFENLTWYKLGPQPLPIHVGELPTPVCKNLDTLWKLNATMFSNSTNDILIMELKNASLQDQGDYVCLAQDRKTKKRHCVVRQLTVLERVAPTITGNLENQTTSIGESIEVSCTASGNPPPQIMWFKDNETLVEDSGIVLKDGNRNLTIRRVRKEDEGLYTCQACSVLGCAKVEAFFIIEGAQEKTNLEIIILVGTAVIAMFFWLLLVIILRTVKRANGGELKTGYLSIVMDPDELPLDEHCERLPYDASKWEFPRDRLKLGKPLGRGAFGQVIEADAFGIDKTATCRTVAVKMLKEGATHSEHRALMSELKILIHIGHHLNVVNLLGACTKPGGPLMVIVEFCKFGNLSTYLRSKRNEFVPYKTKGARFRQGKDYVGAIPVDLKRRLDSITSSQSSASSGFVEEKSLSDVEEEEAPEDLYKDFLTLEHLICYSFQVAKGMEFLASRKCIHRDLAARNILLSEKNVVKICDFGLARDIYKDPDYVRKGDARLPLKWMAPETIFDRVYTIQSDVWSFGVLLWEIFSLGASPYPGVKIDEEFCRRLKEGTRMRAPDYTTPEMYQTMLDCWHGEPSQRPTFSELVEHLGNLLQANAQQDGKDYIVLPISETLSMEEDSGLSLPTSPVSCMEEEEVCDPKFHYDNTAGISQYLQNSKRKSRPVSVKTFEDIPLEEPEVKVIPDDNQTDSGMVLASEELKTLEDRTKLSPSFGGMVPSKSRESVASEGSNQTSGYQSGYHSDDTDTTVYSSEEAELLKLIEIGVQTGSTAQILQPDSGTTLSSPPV

[4] = target: VEGFR1 (Homo sapiens (Human), UniProt P17948); experiment: Enzymic VEGFR1; assay type: biochemical
Chain of VEGFR1 (P17948 27-1338, species assumed): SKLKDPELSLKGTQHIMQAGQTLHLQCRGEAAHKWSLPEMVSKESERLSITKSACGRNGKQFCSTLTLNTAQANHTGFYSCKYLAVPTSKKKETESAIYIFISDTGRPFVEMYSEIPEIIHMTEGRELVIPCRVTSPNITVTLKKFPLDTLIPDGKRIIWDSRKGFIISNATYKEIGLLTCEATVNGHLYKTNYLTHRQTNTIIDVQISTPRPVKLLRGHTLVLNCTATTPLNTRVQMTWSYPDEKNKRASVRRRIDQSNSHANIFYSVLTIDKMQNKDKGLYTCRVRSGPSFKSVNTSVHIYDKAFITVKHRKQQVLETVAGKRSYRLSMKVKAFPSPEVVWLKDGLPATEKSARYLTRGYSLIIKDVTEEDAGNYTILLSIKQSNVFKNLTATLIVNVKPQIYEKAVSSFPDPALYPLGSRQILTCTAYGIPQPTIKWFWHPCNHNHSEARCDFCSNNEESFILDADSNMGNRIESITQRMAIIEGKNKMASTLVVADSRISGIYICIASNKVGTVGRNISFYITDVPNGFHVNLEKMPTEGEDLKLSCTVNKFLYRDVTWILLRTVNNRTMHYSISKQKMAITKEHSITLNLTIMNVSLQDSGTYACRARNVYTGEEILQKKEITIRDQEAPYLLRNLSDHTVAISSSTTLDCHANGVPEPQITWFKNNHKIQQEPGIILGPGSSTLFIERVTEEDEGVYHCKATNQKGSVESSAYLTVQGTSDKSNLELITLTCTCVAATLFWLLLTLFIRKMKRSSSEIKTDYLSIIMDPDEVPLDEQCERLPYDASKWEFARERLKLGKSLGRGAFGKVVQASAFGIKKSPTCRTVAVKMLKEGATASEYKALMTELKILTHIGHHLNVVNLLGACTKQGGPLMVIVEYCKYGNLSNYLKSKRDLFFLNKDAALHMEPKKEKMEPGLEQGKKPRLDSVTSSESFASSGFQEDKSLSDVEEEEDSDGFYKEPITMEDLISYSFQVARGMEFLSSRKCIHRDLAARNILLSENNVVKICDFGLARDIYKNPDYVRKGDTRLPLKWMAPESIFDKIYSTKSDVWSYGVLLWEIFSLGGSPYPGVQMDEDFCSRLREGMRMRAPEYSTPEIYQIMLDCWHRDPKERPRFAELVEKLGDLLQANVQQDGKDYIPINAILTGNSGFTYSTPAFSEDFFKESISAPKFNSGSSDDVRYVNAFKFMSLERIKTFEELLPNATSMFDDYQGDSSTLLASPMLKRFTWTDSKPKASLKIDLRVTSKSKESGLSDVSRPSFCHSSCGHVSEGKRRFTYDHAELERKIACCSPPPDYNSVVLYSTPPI

Chain of PDGFRβ (P09619 33-1106, species assumed): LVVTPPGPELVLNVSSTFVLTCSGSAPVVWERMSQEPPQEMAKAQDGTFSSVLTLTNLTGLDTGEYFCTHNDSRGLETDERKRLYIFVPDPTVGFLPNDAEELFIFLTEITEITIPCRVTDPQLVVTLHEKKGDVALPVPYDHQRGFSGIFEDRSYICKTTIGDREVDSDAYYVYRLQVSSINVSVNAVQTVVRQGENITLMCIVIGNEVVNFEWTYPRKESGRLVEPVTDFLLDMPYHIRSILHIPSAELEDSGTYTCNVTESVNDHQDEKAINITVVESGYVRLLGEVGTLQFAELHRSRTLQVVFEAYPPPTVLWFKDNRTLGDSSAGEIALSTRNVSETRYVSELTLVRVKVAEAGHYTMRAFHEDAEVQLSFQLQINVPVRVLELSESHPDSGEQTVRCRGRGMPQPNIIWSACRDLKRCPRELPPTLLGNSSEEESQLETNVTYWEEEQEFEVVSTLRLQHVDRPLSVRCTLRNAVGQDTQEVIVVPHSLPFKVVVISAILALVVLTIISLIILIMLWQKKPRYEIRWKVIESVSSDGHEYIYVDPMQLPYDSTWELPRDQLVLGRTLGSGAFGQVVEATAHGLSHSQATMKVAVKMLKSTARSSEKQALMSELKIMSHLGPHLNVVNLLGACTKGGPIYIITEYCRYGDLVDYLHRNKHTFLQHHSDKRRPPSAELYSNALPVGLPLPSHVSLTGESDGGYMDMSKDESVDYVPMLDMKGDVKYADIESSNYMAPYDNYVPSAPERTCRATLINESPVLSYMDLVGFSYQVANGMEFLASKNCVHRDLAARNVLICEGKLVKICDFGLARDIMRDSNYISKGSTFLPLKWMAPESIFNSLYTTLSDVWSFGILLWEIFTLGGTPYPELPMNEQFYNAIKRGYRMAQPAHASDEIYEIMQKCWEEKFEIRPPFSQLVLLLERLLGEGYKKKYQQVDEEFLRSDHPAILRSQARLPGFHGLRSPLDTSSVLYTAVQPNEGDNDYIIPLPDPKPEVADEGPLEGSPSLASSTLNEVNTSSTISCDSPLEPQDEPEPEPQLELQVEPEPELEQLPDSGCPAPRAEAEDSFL
Chain of human VEGF receptor (VEGFR-2) (P35968 786-1356): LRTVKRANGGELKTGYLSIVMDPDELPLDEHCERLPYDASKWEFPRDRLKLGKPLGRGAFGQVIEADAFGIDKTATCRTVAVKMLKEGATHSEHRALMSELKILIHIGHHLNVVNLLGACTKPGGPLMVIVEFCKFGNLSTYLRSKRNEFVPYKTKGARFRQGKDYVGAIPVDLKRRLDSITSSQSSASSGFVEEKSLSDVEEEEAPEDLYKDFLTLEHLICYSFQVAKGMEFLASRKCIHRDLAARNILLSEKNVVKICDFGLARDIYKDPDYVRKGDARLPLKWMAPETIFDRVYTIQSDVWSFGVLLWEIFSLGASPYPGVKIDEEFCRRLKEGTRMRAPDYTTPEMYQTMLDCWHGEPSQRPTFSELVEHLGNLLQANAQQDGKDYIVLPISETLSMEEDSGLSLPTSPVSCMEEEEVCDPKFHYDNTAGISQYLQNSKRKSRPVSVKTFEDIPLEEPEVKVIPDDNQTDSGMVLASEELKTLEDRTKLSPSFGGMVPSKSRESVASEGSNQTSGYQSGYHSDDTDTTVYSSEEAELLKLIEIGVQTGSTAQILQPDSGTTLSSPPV

Row | Compound | IC50 [1] [nM] | IC50 [2] [nM] | IC50 [3] [nM] | IC50 [4] [nM]
1 | Cc1ccoc1C(=O)Nc1cccc(Oc2ccnc3cc(C(=O)O)sc23)c1 [Example 72, 7-{3-[(3-methyl-2-furoyl)amino]phenoxy}thieno[3,2-b]pyridine-2-carboxylic acid] | 920 | 39 | 162 | –
2 | CCOC(=O)CCCNC(=O)c1cc2nccc(Oc3ccc(NC(=O)Nc4cc(C)ccc4F)cc3)c2s1 [Example 56, ethyl 4-[({7-[4-({[(2-fluoro-5-methylphenyl)amino]carbonyl}amino)phenoxy]thieno[3,2-b]pyridin-2-yl}carbonyl)amino]butanoate] | – | 20 | – | 16
3 | Cc1ccc(F)c(NC(=O)c2cccc(Oc3ccnc4cc(C(=O)O)sc34)c2)c1 [Example 84, 7-(3-{[(2-fluoro-5-methylphenyl)amino]carbonyl}phenoxy)thieno[3,2-b]pyridine-2-carboxylic acid] | 223 | 20 | 87 | –
4 | COC(=O)CN(CCNC(=O)c1cc2nccc(Oc3ccc(NC(=O)Nc4cc(C)ccc4F)c(F)c3)c2s1)CC(=O)OC [Example 27, dimethyl 2,2′-({2-[({7-[3-fluoro-4-({[(2-fluoro-5-methylphenyl)amino]carbonyl}amino)phenoxy]thieno[3,2-b]pyridin-2-yl}carbonyl)amino]ethyl}imino)diacetate] | 17 | 16 | – | 11
5 | Cc1ccoc1C(=O)Nc1cccc(Oc2ccnc3cc(C(=O)NO)sc23)c1 [Example 75, N-hydroxy-7-{3-[(3-methyl-2-furoyl)amino]phenoxy}thieno[3,2-b]pyridine-2-carboxamide] | 277 | 11 | 16 | –
6 | Cc1ccc(F)c(NC(=O)Nc2ccc(Oc3ccnc4cc(C(=O)NCCNC(=O)OC(C)(C)C)sc34)cc2F)c1 [Example 33] | 69 | 24 | – | 60
7 | CCNC(=O)c1cc2nccc(Oc3cccc(C(=O)Nc4cc(C)ccc4F)c3)c2s1 [Example 85, N-ethyl-7-(3-{[(2-fluoro-5-methylphenyl)amino]carbonyl}phenoxy)thieno[3,2-b]pyridine-2-carboxamide] | 74 | 10 | 16 | –
8 | Cc1ccc(F)c(NC(=O)Nc2ccc(Oc3ccnc4cc(C(=O)NCCCC(=O)O)sc34)cc2F)c1 [Example 64, 4-[({7-[3-fluoro-4-({[(2-fluoro-5-methylphenyl)amino]carbonyl}amino)phenoxy]thieno[3,2-b]pyridin-2-yl}carbonyl)amino]butanoic acid] | – | 13 | – | 7
9 | COC(=O)c1cc2nccc(Oc3ccc(NC(=O)Nc4cc(C)ccc4F)cc3)c2s1 [Compound F1, Methyl 7-[4-({[(2-fluoro-5-methylphenyl)amino]carbonyl}amino)phenoxy]thieno[3,2-b]pyridine-2-carboxylate] | – | 18 | 2 | –
10 | COC(=O)CNCCCNC(=O)c1cc2nccc(Oc3cccc(C(=O)Nc4cc(C)ccc4F)c3)c2s1 [Example 87, Methyl {[3-({[7-(3-{[(2-fluoro-5-methylphenyl)amino]carbonyl}phenoxy)thieno[3,2-b]pyridin-2-yl]carbonyl}amino)propyl]amino}acetate] | 59 | 16 | 9 | –
11 | Cc1ccc(F)c(NC(=O)Nc2ccc(-c3ccnc4cc(C(=O)O)sc34)cc2)c1 [Compound F5, 7-[4-({[(2-fluoro-5-methylphenyl)amino]carbonyl}amino)phenyl]thieno[3,2-b]pyridine-2-carboxylic acid] | – | 10000 | 10000 | –
12 | COC(=O)c1cc2nccc(-c3ccc(NC(=O)Nc4cc(C)ccc4F)cc3)c2s1 [Compound F4, Methyl 7-[4-({[(2-fluoro-5-methylphenyl)amino]carbonyl}amino)phenyl]thieno[3,2-b]pyridine-2-carboxylate] | – | 10000 | 10000 | –
13 | COC(=O)CC[C@H](NC(=O)c1cc2nccc(Oc3ccc(NC(=O)Nc4cc(C)ccc4F)c(F)c3)c2s1)C(=O)OC [Example 54, dimethyl (2S)-2-[({7-[3-fluoro-4-({[(2-fluoro-5-methylphenyl)amino]carbonyl}amino)phenoxy]thieno[3,2-b]pyridin-2-yl}carbonyl)amino]pentanedioate] | – | 34 | 4 | –

These reach a lower IC50 [2]. Values come first.

Row | IC50 [1] [nM] | IC50 [2] [nM] | IC50 [3] [nM] | IC50 [4] [nM] | Compound
14 | 9 | 2 | 2 | – | Cc1ccc(F)c(NC(=O)Nc2ccc(Oc3ccnc4cc(C(=O)NCCCN5CCN(C)CC5)sc34)cc2)c1 [Example 67, 7-[4-({[(2-fluoro-5-methylphenyl)amino]carbonyl}amino)phenoxy]-N-[3-(4-methylpiperazin-1-yl)propyl]thieno[3,2-b]pyridine-2-carboxamide]
15 | 11 | 3 | – | 6 | Cc1ccc(F)c(NC(=O)Nc2ccc(Oc3ccnc4cc(C(=O)NCCCN5CCN(C)CC5)sc34)cc2F)c1 [Example 34, 7-[3-fluoro-4-({[(2-fluoro-5-methylphenyl)amino]carbonyl}amino)phenoxy]-N-[3-(4-methylpiperazin-1-yl)propyl]thieno[3,2-b]pyridine-2-carboxamide]
16 | 17 | 7 | – | 112 | CCOC(=O)CN1CCN(C(=O)c2cc3nccc(Oc4ccc(NC(=O)Nc5cc(C)ccc5F)c(F)c4)c3s2)CC1 [Example 30, ethyl [4-({7-[3-fluoro-4-({[(2-fluoro-5-methylphenyl)amino]carbonyl}amino)phenoxy]thieno[3,2-b]pyridin-2-yl}carbonyl)piperazin-1-yl]acetate]
17 | 206 | 7 | 64 | – | CCN(CC)C(=O)c1cc2nccc(Oc3cccc(C(=O)Nc4cc(C)ccc4F)c3)c2s1 [Example 86, N,N-diethyl-7-(3-{[(2-fluoro-5-methylphenyl)amino]carbonyl}phenoxy)thieno[3,2-b]pyridine-2-carboxamide]
18 | 17 | 5 | – | 8 | COC(=O)C1CCN(C(=O)c2cc3nccc(Oc4ccc(NC(=O)Nc5cc(C)ccc5F)c(F)c4)c3s2)C1 (stereo not shown) [Example 28, methyl 1-({7-[3-fluoro-4-({[(2-fluoro-5-methylphenyl)amino]carbonyl}amino)phenoxy]thieno[3,2-b]pyridin-2-yl}carbonyl)pyrrolidine-3-carboxylate]
19 | 16 | 6 | 20 | – | Cc1ccc(F)c(NC(=O)Nc2ccc(Oc3ccnc4cc(C(=O)NCCCN5CCCC5)sc34)cc2)c1 [Example 68, 7-[4-({[(2-fluoro-5-methylphenyl)amino]carbonyl}amino)phenoxy]-N-(3-pyrrolidin-1-ylpropyl)thieno[3,2-b]pyridine-2-carboxamide]
20 | 13 | 5 | – | 10 | CCOC(=O)CN1CCN(C(=O)CN2CCN(C(=O)c3cc4nccc(Oc5ccc(NC(=O)Nc6cc(C)ccc6F)c(F)c5)c4s3)CC2)CC1 [Example 29, ethyl (4-{[4-({7-[3-fluoro-4-({[(2-fluoro-5-methylphenyl)amino]carbonyl}amino)phenoxy]thieno[3,2-b]pyridin-2-yl}carbonyl)piperazin-1-yl]acetyl}piperazin-1-yl)acetate]
21 | 13 | 9 | – | 9 | COC(=O)CNCCNC(=O)c1cc2nccc(Oc3ccc(NC(=O)Nc4cc(C)ccc4F)c(F)c3)c2s1 [Example 31, methyl ({2-[({7-[3-fluoro-4-({[(2-fluoro-5-methylphenyl)amino]carbonyl}amino)phenoxy]thieno[3,2-b]pyridin-2-yl}carbonyl)amino]ethyl}amino)acetate]
22 | – | 7 | 10 | – | Cc1ccc(F)c(NC(=O)Nc2ccc(Oc3ccnc4cc(C(=O)NCCCN)sc34)cc2F)c1 [Example 45, N-(3-aminopropyl)-7-[3-fluoro-4-({[(2-fluoro-5-methylphenyl)amino]carbonyl}amino)phenoxy]thieno[3,2-b]pyridine-2-carboxamide]
23 | 15 | 7 | – | 10 | Cc1ccc(F)c(NC(=O)Nc2ccc(Oc3ccnc4cc(C(=O)NCCCN5CCOC(CO)C5)sc34)cc2)c1 (stereo not shown) [Example 16, 7-[4-({[(2-fluoro-5-methylphenyl)amino]carbonyl}amino)phenoxy]-N-{3-[2-(hydroxymethyl)morpholin-4-yl]propyl}thieno[3,2-b]pyridine-2-carboxamide]
24 | 16 | 4 | 16 | – | Cc1ccc(F)c(NC(=O)Nc2ccc(Oc3ccnc4cc(C(=O)NCCCN5CCCCC5)sc34)cc2)c1 [Example 66, 7-[4-({[(2-fluoro-5-methylphenyl)amino]carbonyl}amino)phenoxy]-N-(3-piperidin-1-ylpropyl)thieno[3,2-b]pyridine-2-carboxamide]
25 | – | 7 | – | 8 | Cc1ccc(F)c(NC(=O)Nc2ccc(Oc3ccnc4cc(C(=O)NCCCN5CCCC(CO)C5)sc34)cc2F)c1 (stereo not shown) [Example 36, 7-[3-fluoro-4-({[(2-fluoro-5-methylphenyl)amino]carbonyl}amino)phenoxy]-N-{3-[3-(hydroxymethyl)piperidin-1-yl]propyl}thieno[3,2-b]pyridine-2-carboxamide]
